For series [1], the system named is Crandall Feline Kidney cells infected with Feline Immunodeficiency Virus (FIV). Briefly: time for complete cell killing, FIV-infected cells.
A further series has as its system C38. Briefly: soft agar disk diffusion zone of inhibition assay. The settings on record: 25 ug/disk. The class given is cell-based, mice. On the technique in general: A growth-free zone around the sample is the usual read-out of agar diffusion tests.
The test system of the next series is NADH oxidase. Briefly: NADH oxidase activity of soybean hypocotyl plasma membrane vesicles. The class given is biochemical. As to conditions: plant soybean hypocotyl tissue, FIG. 11.
Series [2] can be described thus: in vivo chemotherapy of SC transplanted tumor. Also noted: species or system mice. The settings on record: mouse, in vivo; C38; IV; days: Glaucarubinone 3,5-10, Holacanthone 3-12, Glaucarubolone 3-6, Chaparrinone 3-9; read-out: MTD Total Dose. The source says:
(§1) Mice. Inbreds mice used were C57B1/6, C3H/He, Balb/c, and DBA/2; hybrids were: B6D2F1 (C57B1/6 females×DBA/2 males), and CD2F1 (Balb/c females×DBA/2 males). All mice were obtained from the Frederick Cancer Research Facility, Frederick, Md.
(§2) Tumors were maintained in the mouse strain of origin and were transplanted into either an appropriate F1 hybrid or the strain of origin for therapy trials. All mice were over 17 g at the start of therapy; the range of individual body weights in each experiment was within 2 g. The mice were supplied food and water ad libitum.
(§3) Antitumor Agents. The compound easily dissolved in the diluent which consisted of 3% [V/V (100%-Pure)] Ethanol, 1% (V/V) polyoxyethylanesorbitan monopalmitate (P.O.E.40) and 96% sterile distilled water. The primary route of administration was intravenous (IV).
(§4) […] Chemotherapy. The methods of protocol design, tumor transplantation, drug treatment, endpoint determination, definition of terms, toxicity evaluation, data analysis, quantification of tumor cell kill, and the biologic significance of the drug treatment results with transplantable tumors have been presented. The following is a brief summary of those methods as they apply to the work described.
(§5) The animals necessary to begin an experiment were pooled, implanted bilaterally SC on day 0 with 30 to 60 mg tumor fragments using a 12 gauge trocar, and again pooled before randomization to the various treatment and control group. Chemotherapy was either started within 3 days after tumor implantation while the number of cells per mouse was relatively small (10^7 to 10^8 cells), or allowed to grow to palpation (about 3×10^8 cells) in a more advanced stage trial.
(§6) Tumors were measured with a caliper either once or twice weekly (as needed) until either tumors exceeded 1500 mg or cure was. assured. Tumor weights were estimated from two-dimensional measurements:
(§7) Tumor Weight (mg)=(a×b^2)/2, where a and b are the tumor length and width (mm) respectively.
(§8) Tumor growth delay. (T-C value), where T is the median time (in days) required for the treatment group tumors to reach a predetermined size, and C is the median time (in days) for the control group tumors to reach the same size. Tumor-free survivors were excluded from these calculations (cures were tabulated separately).
(§9) Calculation of tumor cell kill. For SC growing tumors, the log10 cell kill was calculated from the following formula: [formula]
(§10) Where T-C is the tumor growth delay (in days) as described above and Td is the tumor volume doubling time (in days), the latter estimated from the best fit straight line from a log-linear growth plot of the control-group tumors in exponential growth (500 to 1500 mg range). The conversion of the T-C values of log10 cell kill is possible because the Td for tumors regrowing post-treatment approximated the Td values of the tumors in untreated control mice.
(§11) Determination of activity by tumor growth inhibition (T/C value). Measurements were carried out simultaneously in both the treatment and control groups. When the control group tumors reached approximately 750-1500 mg in size (median of group), the median tumor weight of each group was determined (including zeros).

For series [3], the system named is colon adenocarcinoma #38 [C38]. Kind of series: in vivo chemotherapy of SC transplanted tumor. Also on record: species or system mice.
Text: as §1, §2, §3, §4, §5, §6, §7, §8, §9, §10, §11

Series [4] deals with cabbage, radish, carrot, tomato and sorghum seeds. Briefly: seed germination. It is filed as in vivo. As to the method:
(§12) To evaluate the growth phenotype of a set of plants, a 1 mg concentration of 100 Mm (solution QD-2). This solution was diluted serially with water with or without Triton X-100, ethanol or DMSO and used directly for measurement of effects on seed germination or applied using a microliter syringe to foliage to evaluate growth effects on plants.
With seed germination, the compound was evaluated against five species: cabbage (Early Jersey Wakefield), radish (Scarlet Turnip White Tipped), carrot (Danvers Half Long), tomato (Rutgers) and sorghum (DeKalb 18). With water dilutions, seed germination of all species was inhibited at 10 μM (an aqueous dilution of 10 μl of 100 Mm 1:1000 in 100 μl of water) (Final DMSO concentration of 1:10,000=0.01%). Germination of tomato was inhibited at 10μ1/100 µl of an aqueous dilution of 1:10,000=1 μM final concentration.

Series [5] deals with Arabadopsis (var. Columbia). Briefly: growth of plants in soil after foliar application. The class given is in vivo. As to the method:
as §12
When applied to Arabadopsis (var. Columbia) growing in soil in 4 inch plastic pots, the glaucarubolone preparation was herbicidal at dilutions of 1:100 and 1:1000 (10 μ1/half pot). Plants were treated after 10 days of germination. At a dilution of 1:10,000, the plants were not killed but growth was completely stopped for about 3 weeks. Growth resumed about 30 days after treatment. […] The calculated application rate was 2.5×10^−3 oz/A.
In an experiment with Arabadopsis where the quassinoid preparation was administered in ethanol, herbicidal activity was observed down to a dilution of 1:10^4 (2.5×10^−5 oz/A) and a dilution of 1:10^5 (2.5×10^−6 oz/A) appeared to stop growth for at least 30 days. All plants were watered from the bottom to reduce surface spreading of the material. The inhibited phenotype includes an impaired ability of the plants to grow, i.e., cell elongation/cell expansion is prevented or reduced by at least 50% over several weeks.

Series [6] has as its system leukemia and solid tumor cells. Kind of series: in vitro differential cytotoxicity, solid tumor versus leukemia. The class given is cell-based. The settings on record: solid tumor versus leukemia zones.
The test system of another series is HeLa cells. Kind of series: growth of HeLa cells under different redox poise. As to conditions: 10^−7 M, no drug 725. The class given is cell-based. The protocol:
The reduced environment was obtained by addition of 100 μM cysteine and the oxidized environment by addition of 10 μM ter-butylhydroperoxide.

The test system of the next series is L1210. Briefly: soft agar disk diffusion zone of inhibition assay. It is filed as cell-based, mice. The settings on record: 25 ug/disk.

Some results are limits rather than exact numbers.

Turning to `CC1=CC(=O)C(O)C2(C)C1CC1OC(=O)C(O)C3C(C)C(O)C4(O)OCC13C42` (stereo not drawn) [Glaucarubolone, glaucarubolone], the “Time for complete cell killing (>98%), FIV-Infected” value in [1] (3 × 10^−4 M), in [1] (3 × 10^−5 M), in series [1] (3 × 10^−6 M), in series [1] (3 × 10^−7 M), in [1] (3 × 10^−8 M) and in series [1] (3 × 10^−9 M) was greater than 168 h throughout. The “killing of FIV-infected compared to non-infected CFK cells” value in [1] (FIGS. 6 and 7, Table 3) is “differential killing of infected cells”. Besides, the “zone of inhibition C38” value in the series on C38 amounted to 900 ZONE UNITS. Moreover, the “inhibition of NADH oxidation, in words” value with NADH oxidase was “similarly inhibited”. In series [2], the MTD was 151 mg/kg. Besides, the Cures in [3] (C38, IV at MTD, cured/total mice) was 1/5. In addition, the “in vivo activity against C38, in words” value in [3] (mouse, in vivo) is recorded as “therapeutic activity”. Further, in series [4] (DMSO and ethanol dilutions 1:10^6 or 1:10^7, solvents themselves retarded germination), the “lowest concentrations at which inhibitions of germination were observed” value is 10-100 Nm. The “concentration at which seed germination was inhibited” value in [4] (all five species, water dilutions) amounted to 10 µM; in series [4] (tomato, aqueous dilution 1:10,000), 1 µM. Besides, in series [5] (dilution of 1:1000 (2.5×10^−3 oz/A)), the “plants which survived and did not grow for >50 days” value is “Approximately 10%”. Further, the “time after treatment at which growth resumed” value in series [5] (dilution of 1:10,000) was “about 30 days”. Further, in series [5] (dilution of 1:10,000 (2.5×10^−4 oz/A), plants not killed), the “time for which growth was completely stopped” value was “about 3 weeks”. Also, the “effect on plants, in words” value in series [5] (dilutions of 1:100 and 1:1000 (10 μl/half pot), treated after 10 days of germination) is given as “herbicidal”. Moreover, the “solid tumor selectivity in vitro” value in [6] was “demonstrated solid tumor selectivity”. In addition, the “Growth HeLa cells after 72 h, Oxidized” value in the series with HeLa cells (10 μM ter-butylhydroperoxide) amounted to 500 cells/mm^2. Also, the “Growth HeLa cells after 72 h, Reduced” value in the series on HeLa cells (100 μM cysteine) was determined as 700 cells/mm^2. The “Growth HeLa cells after 72 h, In situ” value with HeLa cells stood at 720 cells/mm^2. The “zone of inhibition L1210” value with L1210 is listed as 25:100 ZONE UNITS.

The record behind these values is patent publication US6573296B2, “Therapeutic quassinoid preparations with antineoplastic, antiviral, and herbistatic activity” (priority 1997, dated 2003).
